# Measured values as given in ChEMBL document CHEMBL5226297, “Small-Molecule Drug Discovery in Triple Negative Breast Cancer: Current Situation and Future Directions” (J Med Chem, 2021).
# Tests used:
# [1] = Inhibition of ERK (unknown origin); design: species or system Homo sapiens
# MDA-MB-231 [2] = experiment: Anticancer activity against human MDA-MB-231 cells assessed as cell growth inhibition incubated for 24 hrs by MTT assay; type: functional, cell-based; settings: MDA-MB-231, 24 h
# BT-549 [3] = experiment: Anticancer activity against human BT-549 cells assessed as cell growth inhibition incubated for 24 hrs by MTT assay; type: functional, cell-based; settings: BT-549, 24 h
# MDA-MB-436 [4] = experiment: Anticancer activity against human MDA-MB-436 cells assessed as cell growth inhibition incubated for 24 hrs by MTT assay; type: functional, cell-based; settings: MDA-MB-436, 24 h
# HCC70 [5] = experiment: Anticancer activity against human HCC70 cells assessed as cell growth inhibition incubated up to 72 hrs by Cell-Titre Glo assay; type: functional, cell-based; settings: HCC70, 72 h
# MDA-MB-231 [6] = experiment: Anticancer activity against human MDA-MB-231 cells assessed as cell growth inhibition incubated up to 72 hrs by Cell-Titre Glo assay; type: functional, cell-based; settings: MDA-MB-231, 72 h
# [7] = target: Protein tyrosine phosphatase type IVA 3 (Homo sapiens) (UniProt O75365); experiment: Inhibition of human PRL-3 incubated for 48 hrs by MMP assay
# SUM185PE = experiment: Anticancer activity against human SUM185PE cells assessed as cell growth inhibition incubated for 6 days by CellTiter96 analysis; type: functional, cell-based; settings: 144 h
# [8] = target: N-lysine methyltransferase SMYD2 (Homo sapiens, UniProt Q9NRG4); experiment: Inhibition of human SMYD2 by western blot assay
# MDA-MB-231 [9] = experiment: Anticancer activity against human MDA-MB-231 cells assessed as cell growth inhibition; type: functional, cell-based
# SUM-159-PT = experiment: Anticancer activity against human SUM159 cells assessed as cell growth inhibition incubated for 5 days by sulforhodamine B staining based assay; type: functional; settings: 120 h
# HCC1806 = experiment: Anticancer activity against human HCC1806 cells assessed as cell growth inhibition incubated for 5 days by sulforhodamine B staining based assay; type: functional; settings: HCC1806, 120 h
# HCC70 [10] = experiment: Anticancer activity against human HCC70 cells assessed as cell growth inhibition incubated for 5 days by sulforhodamine B staining based assay; type: functional; settings: HCC70, 120 h
# HCC1937 = experiment: Anticancer activity against human HCC1937 cells assessed as cell growth inhibition incubated for 5 days by sulforhodamine B staining based assay; type: functional; settings: HCC1937, 120 h
# SUM149PT = experiment: Anticancer activity against human SUM149 cells assessed as cell growth inhibition incubated for 5 days by sulforhodamine B staining based assay; type: functional; settings: 120 h
# MDA-MB-231 [11] = experiment: Anticancer activity against human MDA-MB-231 cells assessed as cell growth inhibition incubated for 5 days by sulforhodamine B staining based assay; type: functional; settings: MDA-MB-231, 120 h
# BT-20 = experiment: Anticancer activity against human BT-20 cells assessed as cell growth inhibition incubated for 5 days by sulforhodamine B staining based assay; type: functional; settings: BT-20, 120 h
# [12] = Inhibition of MEK (unknown origin); design: species or system Homo sapiens
# MDA-MB-231 [13] = experiment: Anticancer activity against human MDA-MB-231 cells assessed as cell growth inhibition by MTS assay; type: functional, cell-based
# MDA-MB-231 [14] = experiment: Anticancer activity against human MDA-MB-231 cells assessed as cell growth inhibition incubated for 72 hrs by MTT assay; type: functional, cell-based; settings: MDA-MB-231, 72 h
# MDA-MB-436 [15] = experiment: Anticancer activity against human MDA-MB-436 cells assessed as cell growth inhibition incubated for 72 hrs by MTT assay; type: functional, cell-based; settings: MDA-MB-436, 72 h
# MDA-MB-231 [16] = experiment: cells; settings: Homo sapiens, MDA-MB-231, 48 h
# MDA-MB-468 = experiment: Anticancer activity against human MDA-MB-468 cells assessed as cell growth inhibition incubated for 48 hrs by BrdU assay; type: functional, cell-based; settings: MDA-MB-468, 48 h
# MDA-MB-231 [17] = experiment: Anticancer activity against human MDA-MB-231 cells assessed as cell growth inhibition incubated for 48 hrs by BrdU assay; type: functional, cell-based; settings: MDA-MB-231, 48 h
# 4T1 = experiment: Anticancer activity against mouse 4T1 cells assessed as cell growth inhibition by MTS assay; type: functional, cell-based
# Hs-578T = experiment: Anticancer activity against human Hs-578T cells assessed as cell growth inhibition by MTS assay; type: functional, cell-based
# BT-549 [18] = experiment: Anticancer activity against human BT-549 cells assessed as cell growth inhibition by MTS assay; type: functional, cell-based
# [19] = target: Dual specificity mitogen-activated protein kinase kinase 1 (Homo sapiens, UniProt Q02750); experiment: Inhibition of MEK1 (unknown origin)
# Chain of Dual specificity mitogen-activated protein kinase kinase 1 (Q02750 whole entry): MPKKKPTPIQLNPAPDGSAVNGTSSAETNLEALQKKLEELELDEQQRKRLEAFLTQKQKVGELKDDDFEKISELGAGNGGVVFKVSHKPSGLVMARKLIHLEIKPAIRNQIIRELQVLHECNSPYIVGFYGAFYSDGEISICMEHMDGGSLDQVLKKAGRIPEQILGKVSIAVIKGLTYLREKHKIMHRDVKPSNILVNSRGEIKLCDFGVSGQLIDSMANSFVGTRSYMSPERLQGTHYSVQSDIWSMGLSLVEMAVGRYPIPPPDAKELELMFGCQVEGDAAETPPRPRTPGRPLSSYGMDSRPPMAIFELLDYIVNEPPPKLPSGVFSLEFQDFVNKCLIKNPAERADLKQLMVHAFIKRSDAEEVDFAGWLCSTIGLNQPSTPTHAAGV
# Chain of N-lysine methyltransferase SMYD2 (Q9NRG4 whole entry): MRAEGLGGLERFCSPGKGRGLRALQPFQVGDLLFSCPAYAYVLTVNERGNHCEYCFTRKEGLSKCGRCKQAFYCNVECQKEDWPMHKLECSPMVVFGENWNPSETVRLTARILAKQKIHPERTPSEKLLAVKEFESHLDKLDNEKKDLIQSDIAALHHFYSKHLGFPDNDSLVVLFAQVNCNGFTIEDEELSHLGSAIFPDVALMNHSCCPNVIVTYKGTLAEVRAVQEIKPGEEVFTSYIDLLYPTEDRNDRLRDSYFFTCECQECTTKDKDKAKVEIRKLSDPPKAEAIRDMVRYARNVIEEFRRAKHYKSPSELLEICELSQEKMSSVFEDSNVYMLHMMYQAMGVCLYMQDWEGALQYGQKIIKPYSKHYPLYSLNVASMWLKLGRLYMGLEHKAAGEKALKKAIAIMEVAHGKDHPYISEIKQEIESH
# Chain of Protein tyrosine phosphatase type IVA 3 (Homo sapiens) (O75365 whole entry): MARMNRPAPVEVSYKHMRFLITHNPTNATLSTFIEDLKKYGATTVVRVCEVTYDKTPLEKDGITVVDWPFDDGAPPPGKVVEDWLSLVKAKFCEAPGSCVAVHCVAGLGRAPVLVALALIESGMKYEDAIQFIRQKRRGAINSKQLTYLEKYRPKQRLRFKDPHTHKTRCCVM
compound,measurement,setting,value
Clc1cc(Cl)cc(C(Cn2ccnc2)OCc2nc3ccccc3s2)c1 (centres undefined),IC50,[1],5 µM
C=C1C(=O)O[C@]2(C)CC[C@H](CBr)[C@]12OC,IC50,MDA-MB-231 [2],7.91 µM
same,IC50,BT-549 [3],6.61 µM
same,IC50,MDA-MB-436 [4],8.63 µM
CC(=O)O[C@@H]1[C@@H](OC(C)=O)[C@@H](O)[C@H](Oc2c(-c3ccc(O)cc3)oc3cc(O)cc(O)c3c2=O)O[C@H]1C,IC50,HCC70 [5],15 µM
same,IC50,MDA-MB-231 [6],3 µM
C=C1/C(=C\C=C2/CCC[C@]3(C)[C@@H]([C@H](C)CCCC(C)(C)O)CC[C@@H]23)C[C@@H](OC(=O)CBr)C[C@@H]1O,IC,[7],100 nM
CCN(CC)CCCCNc1ncc2cc(-c3cc(OC)cc(OC)c3)c(NC(=O)NC(C)(C)C)nc2n1 [PD-173074],IC50,SUM185PE,0.02 µM
O=C1COc2c(CCNCCN(C(=O)CCNCCc3ccc(Cl)c(Cl)c3)C3CCCCC3)ccc(O)c2N1,IC50,[8],20 µM
CNCCC(Oc1ccc(C(F)(F)F)cc1)c1ccccc1 (centres undefined) [FLUOXETINE],IC50,MDA-MB-231 [2],0.5 µM
same,IC50,MDA-MB-436 [4],0.5 µM
OC[C@H]1O[C@@H](OCCc2ccc(O)cc2)[C@H](O)[C@@H](O)[C@@H]1O [SALIDROSIDE],IC50,MDA-MB-231 [2],40 µM
CO[C@H]1C[C@H](C)Cc2cc(O)cc(c2)NC(=O)/C(C)=C/CC[C@H](OC)[C@@H](OC(N)=O)/C(C)=C/[C@H](C)[C@H]1O,IC50,MDA-MB-231 [9],74.9 µM
N[C@@H](C(=O)N[C@@H]1C(=O)N2C(C(=O)O)=C(CSc3c[nH]nn3)CS[C@H]12)c1ccc(O)cc1 [CEFATRIZINE],IC50,MDA-MB-436 [4],30 µM
CN(C)CC/C=C1\c2ccccc2COc2ccc(CC(=O)NN)cc21,IC50,MDA-MB-436 [4],5 µM
CCNc1cc(O)c2c(c1)/C=C/C[C@H](O)[C@H](O)C(=O)/C=C\[C@@H](C)[C@H](C)OC2=O [E-6201],IC50,SUM-159-PT,2.36 µM
same,IC50,HCC1806,2.5 µM
same,IC50,HCC70 [10],8.79 µM
same,IC50,HCC1937,3.73 µM
same,IC50,SUM149PT,0.21 µM
same,IC50,MDA-MB-231 [11],0.25 µM
same,IC50,BT-20,10.1 µM
CCOC(=O)C1=C(C)NC(=O)NC1c1cccc([N+](=O)[O-])c1 (centres undefined),IC50,[1],50 µM
same,IC50,[12],50 µM
CC[C@@H](C(=O)[C@@H](C)[C@@H](O)[C@H](C)[C@@H]1O[C@@H]([C@@H](CC)C(=O)O)CC[C@@H]1C)[C@H]1O[C@]2(C=C[C@@H](O)[C@]3(CC[C@@](C)([C@H]4CC[C@](O)(CC)[C@H](C)O4)O3)O2)[C@H](C)C[C@@H]1C [SALINOMYCIN],IC50,MDA-MB-231 [13],0.5 µM
C=C1C(=O)O[C@@H]2/C=C(\C)[C@@H](O)C/C=C(/C)C[C@@H](OC(=O)/C(C)=C/CO)[C@@H]12,IC50,MDA-MB-231 [14],3.21 µM
same,IC50,MDA-MB-436 [15],3.04 µM
C=C1C(=O)O[C@]2(C)CC[C@H](CBr)[C@]12O,IC50,MDA-MB-231 [2],12.1 µM
same,IC50,BT-549 [3],9.63 µM
same,IC50,MDA-MB-436 [4],11.8 µM
C=C(C)[C@@H]1CCC(C)=C[C@H]1c1c(O)cc(CCCCC)cc1O [CANNABIDIOL],IC50,MDA-MB-231 [16],6 µM
CC(C)CC[C@@H]1NC(=O)[C@]2(C)CCCN2C1=O,IC50,MDA-MB-468,67.4 µM
same,IC50,MDA-MB-231 [17],73.4 µM
CCN(CC)C(=S)SSC(=S)N(CC)CC,IC50,4T1,0.25 µM
O=C(Nc1ccc([N+](=O)[O-])cc1Cl)c1cc(Cl)ccc1O [NICLOSAMIDE],IC50,MDA-MB-231 [2],0.625 µM
COc1cc2nccc(C(OC(C)=O)c3ccc4c(c3OC)C=CC(C)(C)O4)c2cc1OC (centres undefined),IC50,Hs-578T,5 µM
same,IC50,BT-549 [18],15 µM
same,IC50,MDA-MB-231 [13],5 µM
O=C(c1ccc(F)c(F)c1Nc1ccc(I)cc1F)N1CC(O)([C@@H]2CCCCN2)C1 [COBIMETINIB],IC50,[19],4.2 µM
